target: T1, GLP-1R (Homo sapiens, UniProt P43220); assay: EC20 GLP-1(9-36) PAM cAMP Assay: dose response of compound in the presence of fixed concentration of GLP-1(9-36); assay type: cell-based; conditions: GLP-1R CRE-bla CHO-K1 cells, in presence of fixed concentration of GLP-1(9-36), 30 min at 37° C.
T1 construct: host or cells: CRE-bla CHO-K1
Method: EC20 GLP-1(9-36) PAM cAMP Assay: Dose Response of Compound in the Presence of Fixed Concentration of GLP-1 (9-36).
GLP-1R CRE-bla CHO-K1 cells cultured in growth medium (DMEM-High glucose, 10% dialyzed FBS, 0.1 mM NEAA, 25 mM Hepes, 100 U/mL penicillin/100 μg/mL streptomycin, 5 μg/mL Blasticidin, 600 μg/mL Hygromycin) were trypsinized and plated in suspension into 384 well white flat bottom plates at 5000 cells/well in 12 μL assay buffer (Hanks Balanced Salt solution, 10 mM Hepes, 0.1% BSA, 10 pH 7.4). A 5× compound dose response curve (12-point) was generated in assay buffer containing 1.5 mM IBMX, 4% DMSO. GLP-1(9-36) was diluted to 4.2 μM in assay buffer containing 1.5 mM IBMX and 4% DMSO. The 5× compound dose response was added (3 μL), followed by 0.5 μL of GLP-1(9-36) and cells were incubated for 30 min at 37° C. Direct detection of cAMP was carried out using DiscoveRx HitHunter cAMP kit according to manufacturer's instructions and luminescence was read using a SpectraMax M5 plate reader. Luminescence was converted to total cAMP using a cAMP standard curve and data was analyzed by non-linear regression to determine the EC50 and Emax.

T1 sequence (P43220 24-463): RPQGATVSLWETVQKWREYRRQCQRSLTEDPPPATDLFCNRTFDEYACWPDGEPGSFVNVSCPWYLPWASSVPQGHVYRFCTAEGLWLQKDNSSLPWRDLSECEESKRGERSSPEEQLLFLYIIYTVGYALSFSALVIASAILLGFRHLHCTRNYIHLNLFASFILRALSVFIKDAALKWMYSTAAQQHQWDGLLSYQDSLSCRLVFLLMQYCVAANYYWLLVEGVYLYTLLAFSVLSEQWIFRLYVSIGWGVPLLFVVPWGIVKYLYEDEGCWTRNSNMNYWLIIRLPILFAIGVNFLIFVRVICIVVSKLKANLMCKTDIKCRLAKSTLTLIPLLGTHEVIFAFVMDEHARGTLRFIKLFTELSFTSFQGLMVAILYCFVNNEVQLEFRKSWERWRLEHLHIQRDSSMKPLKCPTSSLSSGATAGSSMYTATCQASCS
T1 sequence (P01275 100-127 partner limits assumed): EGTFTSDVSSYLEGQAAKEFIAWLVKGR

SMILES | EC50 [nM]
CCCC1CCC(C2CC=C(c3cnc(-c4ccc(C[C@@H](NC(=O)c5ccc(C(C)(C)C)s5)C(=O)N5CC(C(=O)O)C5)cc4)nc3)CC2)CC1 (stereo partly drawn) [Compound 81, 1-((2R)-2-(5-(tert-butyl)thiophene-2-carboxamido)-3-(4-(5-(4′-propyl-[1,1′-bi(cyclohexan)]-3-en-4-yl)pyrimidin-2-yl)phenyl)propanoyl) azetidine-3-carboxylic acid] | 500 to 2500
CCCC1CCC(C2CC=C(c3cnc(-c4ccc(C[C@H](NC(=O)c5ccc(C(C)(C)C)s5)C(=O)N5C6CCC5C(C(=O)O)C6)cc4)nc3)CC2)CC1 (some centres unmarked) [Compound 80] | 500 to 2500
CCCC1CCC(C2CCC(c3cnc(-c4ccc(C[C@H](NC(=O)c5ccc(CC)cc5)C(=O)N5CC(C(=O)O)C5)cc4)nc3)CC2)CC1 (some centres unmarked) [Compound 20] | 5000 to 10000
CC(C)(C)c1ccc(C(=O)N[C@@H](Cc2ccc(-c3ncc(C4CCC(C(C)(C)C)CC4)cn3)cc2)C(=O)N2CC(C(=O)O)C2)s1 (some centres unmarked) [Compound 41] | 5000 to 10000
CC(C)(C)c1ccc(C(=O)N[C@@H](Cc2ccc(-c3ncc(C4=CCC(C(F)(F)F)CC4)cn3)cc2)C(=O)N2CC(C(=O)O)C2)s1 (some centres unmarked) [Compound 37] | 500 to 2500
CC[C@H]1CC[C@H](C2CC=C(c3cnc(-c4ccc(C[C@H](NC(=O)c5ccc(C(C)(C)C)s5)C(=O)NCC5CCNC5)cc4)nc3)CC2)CC1 (some centres unmarked) [Compound 108] | 500 to 2500
CCCC1CCC(C2CC=C(c3cnc(-c4ccc(C[C@H](NC(=O)c5ccc(C(C)(C)C)s5)C(=O)N[C@@H](CCN)C(=O)O)cc4)nc3)CC2)CC1 (some centres unmarked) [Compound 72] | 2500 to 5000
C[C@@H](NC(=O)[C@H](Cc1ccc(-c2ncc(C3=CCCC3)cn2)cc1)NC(=O)c1ccc(C(C)(C)C)s1)C(=O)O [Compound 63] | 500 to 2500
CCCC1CCC(C2CC=C(c3cnc(-c4ccc(C[C@H](NC(=O)c5cc6cc(OC)ccc6[nH]5)C(=O)N5CC(C(=O)O)C5)cc4)nc3)CC2)CC1 (some centres unmarked) [Compound 33] | 500 to 2500

The next lines start with the values.

EC50 [nM] | SMILES
500 to 2500 | CCCC1CCC(C2CC=C(c3cnc(-c4ccc(C[C@@H](NC(=O)c5ccc(C(C)(C)C)s5)C(=O)N5CC(C(=O)O)C5)cc4)nc3)CC2)CC1 (some centres unmarked) [Compound 124]
< 500 | CC(C)(C)c1ccc(C(=O)N[C@@H](Cc2ccc(-c3ncc(C4=CCC([C@H]5CC[C@H](C)CC5)CC4)cn3)cc2)C(=O)NCCC(=O)O)s1 (some centres unmarked) [Compound 113]
< 500 | CCC(C)(C)c1ccc(C(=O)N[C@@H](Cc2ccc(-c3ncc(C4=CCC([C@H]5CC[C@H](CC)CC5)CC4)cn3)cc2)C(=O)N2CC(C(=O)O)C2)cc1 (some centres unmarked) [Compound 101]
< 500 | CC[C@H]1CC[C@H](C2CC=C(c3cnc(-c4ccc(C[C@H](NC(=O)c5ccc(C6CC6)s5)C(=O)N5CC(C(=O)O)C5)cc4)nc3)CC2)CC1 (some centres unmarked) [Compound 97]
< 500 | CC[C@H]1CC[C@H](C2CC=C(c3cnc(-c4ccc(C[C@H](NC(=O)c5ccc(C(C)(C)C)s5)C(=O)N5CC(C(=O)O)C5)cc4)nc3)CC2)CC1 (mixture of isomers) [Compound 76, 1-((S)-2-(5-(tert-butyl)thiophene-2-carboxamido)-3-(4-(5-((1RS,1′r,4′RS)-4′-ethyl-[1,1′-bi(cyclohexan)]-3-en-4-yl)pyrimidin-2-yl)phenyl)propanoyl)azetidine-3-carboxylic acid]
< 500 | COCC1CCC(C2CC=C(c3cnc(-c4ccc(CC(NC(=O)c5ccc(C(C)(C)C)s5)C(=O)N5CC(C(=O)O)C5)cc4)nc3)CC2)CC1 (centres unmarked) [Compound 88]
< 500 | CCc1ccc(C(=O)N[C@@H](Cc2ccc(-c3ncc(C4=CCC([C@H]5CC[C@H](CC)CC5)CC4)cn3)cc2)C(=O)N2CC(C(=O)O)C2)s1 (some centres unmarked) [Compound 93]
< 500 | CCc1ccc(C(=O)N[C@@H](Cc2ccc(-c3ncc(C4=CCC([C@H]5CC[C@H](C)CC5)CC4)cn3)cc2)C(=O)N2CC(C(=O)O)C2)s1 (some centres unmarked) [Compound 91]
